Data reported in EP3074389B1, “QUINOLINE DERIVATIVES AS BROMODOMAIN INHIBITORS” (Gilead Sciences, Inc., priority 2013, dated 2015).

Experiments:
BRD4 domain 1 = BRD4 domain 1 (Homo sapiens, UniProt O60885); test: Kd determination of inhibitors binding to BRD4 domain 1 (Epic label-free platform); details: direct binding to immobilized BRD4 domain 1; tripling dilution series from 20µM; about 1hr equilibrium; rounded to whole number; read-out: Epic Kd BRD41
Description: (§1) Kd Determination of Inhibitors Binding to BRD4 Domain 1 and Domain 2
(§2) The binding of small molecule inhibitors to either BRD4 domain 1 or domain 2 were determined using the Epic, high-throughput, label-free platform (Corning, Lowell, MA). The Epic instrument incorporates an evanescent waveguide sensor within each well of its proprietary 384-well microplates. Direct binding of inhibitors to BRD4 immobilized onto the microplate well surface can be detected by exposing the waveguide to a broadband light source. The resulting resonant wavelength shift (measured in picometers (pm)) is proportional to the mass bound to the surface. Epic biochemical plates (Corning, Lowell, MA) were activated by adding 15 µL/well of 200 mM EDC and 50 mM Sulfo-NHS (Pierce Thermo Scientific, Rockford, IL) and incubated for 60 minutes at room temperature. Plates were washed three times with MilliQ water and dried by centrifugation (1 minute at 400 rpm). BRD4 immobilization was accomplished by resuspending the protein at a concentration of 150 µg/mL in 20 mM HEPES (pH 7) and adding 10 µL/well. […] Compound/inhibitor binding was determined by calculating difference between the baseline (first read) and second read. The resulting binding response was fitted to a single site binding isotherm in order to determine an equilibrium dissociation constant (Kd).

BRD4 domain 2 = BRD4 domain 2 (Homo sapiens, UniProt O60885); test: Kd determination of inhibitors binding to BRD4 domain 2 (Epic label-free platform); details: direct binding to immobilized BRD4 domain 2; tripling dilution series from 20µM; about 1hr equilibrium; rounded to whole number
Description: as §1, §2

Which Kd (BRD4 domain 1) does the source give for `Cc1noc(C)c1-c1cc(S(=O)(=O)NC2(C(F)(F)F)CC2)c2cccnc2c1` [Compound 84, 7-(3,5-dimethylisoxazol-4-yl)-N-(1-(trifluoromethyl)cyclopropyl)quinoline-5-sulfonamide] here?
The Kd was 2000 nM.

What about the Kd (BRD4 domain 2) of the same molecule?
Its Kd is 18200 nM.

`Cc1noc(C)c1-c1cc(S(=O)(=O)NC2(C)CCCC2)c2cccnc2c1` [Compound 24, 7-(3,5-dimethylisoxazol-4-yl)-N-(1-methylcyclopentyl)qui noline-5-sulfonamide] was tested. Which Kd (BRD4 domain 1) did it give?
Its Kd is 3550 nM.

What about the Kd (BRD4 domain 2) of the same molecule?
The Kd was 2110 nM.

`Cc1noc(C)c1-c1cc(S(=O)(=O)NC2CC3CCC(C2)N3C)c2cccnc2c1` (stereo not drawn) [Compound 40, 7-(3,5-dimethylisoxazol-4-yl)-N-(8-methyl-8-azabicyclo[3.2.1]octan-3-yl)quinoline-5-sulfonamide] was tested. Which Kd (BRD4 domain 1) did it give?
The Kd was 16000 nM.

And the Kd (BRD4 domain 2)?
Its Kd is greater than 20000 nM.

With `Cc1noc(C)c1-c1cc(S(=O)(=O)N[C@@H]2CCC[C@H](O)C2)c2cccnc2c1` [Compound 20, 7-(3,5-dimethylisoxazol-4-yl)-N-((1R,3S)-3-hydroxycyclohexyl)qu inoline-5-sulfonamide] as the molecule, how does the Kd (BRD4 domain 1) read?
Its Kd is 5750 nM.

What about the Kd (BRD4 domain 2) of the same molecule?
Its Kd is 4790 nM.

Which results are given for `Cc1noc(C)c1-c1cc(S(=O)(=O)NC2CCCC2)c2cc(N3CCCCC3)c(=O)[nH]c2c1` [Compound 60, N-cyclopentyl-7-(3,5-dimethylisoxazol-4-yl)-2-oxo-3-(piperidin-1-yl)-1,2-dihydroquinoline-5-sulfonamide]?
Kd (BRD4 domain 1): 2230 nM; Kd (BRD4 domain 2): 1900 nM

What does the source list for `Cc1noc(C)c1-c1cc(S(=O)(=O)NC2CCCC2)c2cc(NCC(O)CO)c(=O)[nH]c2c1` (stereo not drawn) [Compound 93, N-cyclopentyl-3-((2,3-dihydroxypropyl)amino)-7-(3,5-dimethylisoxazol-4-yl)-2-oxo-1,2-dihydroquinoline-5-sulfonamide]?
Kd (BRD4 domain 1): 951 nM; Kd (BRD4 domain 2): 417 nM

Which results are given for `Cc1noc(C)c1-c1cc(S(=O)(=O)NC2CCC2)c2cccnc2c1` [Compound 10, N-cyclobutyl-7-(3,5-dimethylisoxazol-4-yl)quinoline-5-sulfonamide]?
Kd (BRD4 domain 1): 3190 nM; Kd (BRD4 domain 2): 2680 nM

For `Cc1noc(C)c1-c1cc(S(=O)(=O)N[C@@H]2CCC[C@H]2O)c2cccnc2c1` [Compound 26, 7-(3,5-dimethylisoxazol-4-yl)-N-((1R,2R)-2-hydroxycyclopentyl)q uinoline-5-sulfonamide], which Kd (BRD4 domain 1) is on record?
Its Kd is 4090 nM.

And the Kd (BRD4 domain 2)?
The Kd was 3550 nM.

`Cc1noc(C)c1-c1cc(S(=O)(=O)NC2CCCC2)c2cc(-c3ncccn3)c(=O)[nH]c2c1` [Compound 37, N-cyclopentyl-7-(3,5-dimethylisoxazol-4-yl)-2-oxo-3-(pyrimidin-2-yl)-1,2-dihydroquinoline-5-sulfonamide] was tested. Which Kd (BRD4 domain 1) did it give?
Its Kd is 2090 nM.

And the Kd (BRD4 domain 2)?
Its Kd is 757 nM.

`Cc1noc(C)c1-c1cc(S(=O)(=O)NC2(C#N)CCCC2)c2cccnc2c1` [Compound 52, N-(1-cyanocyclopentyl)-7-(3,5-dimethylisoxazol-4-yl)quinoline-5-sulfonamide] was tested. Which Kd (BRD4 domain 1) did it give?
The Kd was greater than 20000 nM.

And the Kd (BRD4 domain 2)?
The Kd was 11700 nM.

What does the source list for `Cc1noc(C)c1-c1cc(S(=O)(=O)NC2CCCC2)c2cc(N3CCNCC3)c(=O)[nH]c2c1` [Compound 56, N-cyclopentyl-7-(3,5-dimethylisoxazol-4-yl)-2-oxo-3-(piperazin-1-yl)-1,2-dihydroquinoline-5-sulfonamide]?
Kd (BRD4 domain 1): 933 nM; Kd (BRD4 domain 2): 611 nM

For `Cc1noc(C)c1-c1cc(S(=O)(=O)NC2CCCC2)c2cc(NCC3CC3)c(=O)[nH]c2c1` [Compound 76, N-cyclopentyl-3-((cyclopropylmethyl)amino)-7-(3,5-dimethylisoxazol-4-yl)-2-oxo-1,2-dihydroquinoline-5-sulfonamide], which Kd (BRD4 domain 1) is on record?
Its Kd is 416 nM.

And the Kd (BRD4 domain 2)?
Its Kd is 497 nM.

Which Kd (BRD4 domain 1) does the source give for `Cc1noc(C)c1-c1cc(S(=O)(=O)NC2CC2)c2cccnc2c1` [Compound 8, N-cyclopropyl-7-(3,5-dimethylisoxazol-4-yl)quinoline-5-sulfonamide] here?
The Kd was 3950 nM.

And the Kd (BRD4 domain 2)?
The Kd was 2250 nM.

Which results are given for `Cc1noc(C)c1-c1cc(S(=O)(=O)N[C@H]2C[C@@H]3CC[C@H]2C3)c2cccnc2c1` [Compound 38, N-((1S,2S,4R)-bicyclo[2.2.1]heptan-2-yl)-7-(3,5-dimethylisoxazol-4-yl)quinoline-5-sulfonamide]?
Kd (BRD4 domain 1): 3140 nM; Kd (BRD4 domain 2): 3490 nM

With `Cc1noc(C)c1-c1cc(S(=O)(=O)N(C)C2CC2)c2cccnc2c1` [Compound 9, N-cyclopropyl-7-(3,5-dimethylisoxazol-4-yl)-N-methylquinoline-5-sulfonamide] as the molecule, how does the Kd (BRD4 domain 1) read?
The Kd was greater than 20000 nM.

And the Kd (BRD4 domain 2)?
Its Kd is 12500 nM.

Which results are given for `Cc1noc(C)c1-c1cc(S(=O)(=O)NC2CCCC2)c2cc(NCCN(C)C)c(=O)[nH]c2c1` [Compound 88, N-cyclopentyl-3-((2-(dimethylamino)ethyl)amino)-7-(3,5-dimethylisoxazol-4-yl)-2-oxo-1,2-dihydroquinoline-5-sulfonamide]?
Kd (BRD4 domain 1): 1060 nM; Kd (BRD4 domain 2): 943 nM

With `Cc1noc(C)c1-c1cc(S(=O)(=O)N[C@@H]2C[C@H]2c2ccccc2)c2cccnc2c1` [Compound 12, 7-(3,5-dimethylisoxazol-4-yl)-N-((1R,2S)-2-phenylcyclopropyl)qui noline-5-sulfonamide] as the molecule, how does the Kd (BRD4 domain 1) read?
The Kd was 15800 nM.

And the Kd (BRD4 domain 2)?
The Kd was greater than 20000 nM.

Which results are given for `Cc1noc(C)c1-c1cc(S(=O)(=O)NC2CCCC2)c2cc(NCCN3CCOCC3)c(=O)[nH]c2c1` [Compound 90, N-cyclopentyl-7-(3,5-dimethylisoxazol-4-yl)-3-((2-morpholinoethyl)amino)-2-oxo-1,2-dihydroquinoline-5-sulfonamide]?
Kd (BRD4 domain 1): 652 nM; Kd (BRD4 domain 2): 560 nM

What does the source list for `COCCNc1cc2c(S(=O)(=O)N[C@@H]3CCC[C@H]3O)cc(-c3c(C)noc3C)cc2[nH]c1=O` [Compound 85, 7-(3,5-dimethylisoxazol-4-yl)-N-((1R,2R)-2-hydroxycyclopentyl)-3-((2-methoxyethyl)amino)-2-oxo-1,2-dihydroquinoline-5-sulfonamide]?
Kd (BRD4 domain 1): 483 nM; Kd (BRD4 domain 2): 429 nM

With `Cc1noc(C)c1-c1cc(S(=O)(=O)NC2CCCC2)c2cccnc2c1Cl` [Compound 18, 8-chloro-N-cyclopentyl-7-(3,5-dimethylisoxazol-4-yl)quinoline-5-sulfonamide] as the molecule, how does the Kd (BRD4 domain 1) read?
Its Kd is 9150 nM.

And the Kd (BRD4 domain 2)?
Its Kd is 4260 nM.

Which results are given for `Cc1noc(C)c1-c1cc(S(=O)(=O)N[C@@H](CC(C)(C)C)C(=O)N2CCNCC2)c2cccnc2c1` [Compound 81, (S)-N-(4,4-dimethyl-1-oxo-1-(piperazin-1-yl)pentan-2-yl)-7-(3,5-dimethylisoxazol-4-yl)quinoline-5-sulfonamide]?
Kd (BRD4 domain 1): 13700 nM; Kd (BRD4 domain 2): > 20000 nM

Which Kd (BRD4 domain 1) does the source give for `Cc1noc(C)c1-c1cc(S(=O)(=O)N[C@@H]2CCC[C@H]2C(=O)NC2CCCC2)c2cccnc2c1` [Compound 35, (1R,2R)-N-cyclopentyl-2-(7-(3,5-dimethylisoxazol-4-yl)quinoline-5-sulfonamido)cyclopen tanecarboxamide] here?
Its Kd is greater than 20000 nM.

And the Kd (BRD4 domain 2)?
Its Kd is 19700 nM.

For `CNc1cc2c(S(=O)(=O)NC3CCCC3)cc(-c3c(C)noc3C)cc2[nH]c1=O` [Compound 62, N-cyclopentyl-7-(3,5-dimethylisoxazol-4-yl)-3-(methytamino)-2-oxo-1,2-dihydroquinoline-5-sulfonamide], which Kd (BRD4 domain 1) is on record?
The Kd was 850 nM.

What about the Kd (BRD4 domain 2) of the same molecule?
The Kd was 526 nM.

What does the source list for `CC(=O)NCCNC(=O)[C@@H]1CCC[C@H]1NS(=O)(=O)c1cc(-c2c(C)noc2C)cc2ncccc12` [Compound 73, (1R,2R)-N-(2-acetamidoethyl)-2-(7-(3,5-dimethylisoxazol-4-yl)quinoline-5-sulfonamido)cyclopen tanecarboxamide]?
Kd (BRD4 domain 1): > 20000 nM; Kd (BRD4 domain 2): 16700 nM

How did the Kd (BRD4 domain 1) turn out when `Cc1noc(C)c1-c1cc(S(=O)(=O)NC2CC2)c2ccc(=O)[nH]c2c1` [Compound 68, N-cyclopropyl-7-(3,5-dimethylisoxazol-4-yl)-2-oxo-1,2-dihydroquinoline-5-sulfonamide] was run?
Its Kd is 13800 nM.

And the Kd (BRD4 domain 2)?
The Kd was 2920 nM.

How did the Kd (BRD4 domain 1) turn out when `Cc1noc(C)c1-c1cc(S(=O)(=O)N[C@@H]2CCC[C@H]2C(=O)NCCN)c2cccnc2c1` [Compound 72, (1R,2R)-N-(2-aminoethyl)-2-(7-(3,5-dimethylisoxazol-4-yl)quinoline-5-sulfonamido)cyclopen tanecarboxamide] was run?
The Kd was 1440 nM.

What about the Kd (BRD4 domain 2) of the same molecule?
The Kd was 2330 nM.

Which Kd (BRD4 domain 1) does the source give for `Cc1noc(C)c1-c1cc(S(=O)(=O)N[C@@H]2CCC[C@H]2C(=O)N2CCNCC2)c2cccnc2c1` [Compound 47, 7-(3,5-dimethylisoxazol-4-yl)-N-((1R,2R)-2-(piperazine-1-carbonyl)cyclopentyl) quinoline-5-sulfonamide] here?
Its Kd is 3160 nM.

What about the Kd (BRD4 domain 2) of the same molecule?
Its Kd is 2270 nM.

Which Kd (BRD4 domain 1) does the source give for `Cc1noc(C)c1-c1cc(S(=O)(=O)N[C@@H]2CCC[C@@H]2C(=O)N2CCNCC2)c2cccnc2c1` [Compound 50, 7-(3,5-dimethylisoxazol-4-yl)-N-((1R,2S)-2-(piperazine-1-carbonyl)cyclopentyl) quinoline-5-sulfonamide] here?
The Kd was 7170 nM.

And the Kd (BRD4 domain 2)?
The Kd was 8130 nM.

Which Kd (BRD4 domain 1) does the source give for `Cc1noc(C)c1-c1cc(S(=O)(=O)NC2CCCC2)c2cc(N)c(=O)[nH]c2c1` [Compound 41, 3-amino-N-cyclopentyl-7-(3,5-dimethylisoxazol-4-yl)-2-oxo-1,2-dihydroquinoline-5-sulfonamide] here?
Its Kd is 400 nM.

And the Kd (BRD4 domain 2)?
The Kd was 450 nM.

With `Cc1noc(C)c1-c1cc(S(=O)(=O)NC2CC2)c2ccc(N3CCNCC3)nc2c1` [Compound 80, N-cyclopropyl-7-(3,5-dimethylisoxazol-4-yl)-2-(piperazin-1-yl)quinoline-5-sulfonamide] as the molecule, how does the Kd (BRD4 domain 1) read?
The Kd was 1730 nM.

What about the Kd (BRD4 domain 2) of the same molecule?
Its Kd is 1390 nM.
